Laboratory results reported in ChEMBL document CHEMBL4390671, “FragLites-Minimal, Halogenated Fragments Displaying Pharmacophore Doublets. An Efficient Approach to Druggability Assessment and Hit Generation” (J Med Chem, 2019).
Calls of active or inactive are those of the source. The calls are words filed in the database; no cut-off is given here.

Assays:
[1] = target: T1, Cyclin-dependent kinase 2 (Homo sapiens, UniProt P24941); assay: Binding affinity to full-length human CDK2 expressed in Escherichia coli BL21 (DE3) pLysS cells by isothermal titration calorimetry
[2] = target: T1, Cyclin-dependent kinase 2; assay: Binding affinity to full-length human CDK2 expressed in Escherichia coli BL21 (DE3) pLysS cells at 1 to 5 mM by isothermal titration calorimetry
[3] = target: T1, Cyclin-dependent kinase 2; assay: Binding affinity to full-length human CDK2 expressed in Escherichia coli BL21 (DE3) pLysS cells at 5 mM by isothermal titration calorimetry

SMILES | Kd [1] [µM] | Activity [3] | further results
Nc1nc(-c2cccc(CC(=O)O)c2)c2nc[nH]c2n1 | 50 |  | Activity [1]: Dose-dependent effect
Nc1nc(I)c2nc[nH]c2n1 | 350 |  | 
Nc1nc(Oc2cccc(CC(=O)O)c2)c2nc[nH]c2n1 |  |  | Activity [2]: inactive
NS(=O)(=O)c1ccc(Br)cc1 |  | inactive | 
Brc1cn[nH]c1 |  | inactive | 
